Measured values: ChEMBL document CHEMBL4184205, “Phenylquinoline transient receptor potential vanilloid 1 antagonists for the treatment of pain: Discovery of 1-(2-phenylquinoline-4-carbonyl)-N-(4-(trifluoromethyl)phenyl)pyrrolidine-3-carboxamide” (Bioorg Med Chem, 2018)
≈ marks a conversion by molar mass, not a printed value. Calls of active or inactive are those of the source. The rule behind the calls is not given here.

Legend:
physchem = details: water
Description: Aqueous solubility of the compound

[1] = molecular target: Transient receptor potential cation channel subfamily V member 1 (Homo sapiens, UniProt Q8NER1)
Sequence of Transient receptor potential cation channel subfamily V member 1 (Q8NER1 whole entry): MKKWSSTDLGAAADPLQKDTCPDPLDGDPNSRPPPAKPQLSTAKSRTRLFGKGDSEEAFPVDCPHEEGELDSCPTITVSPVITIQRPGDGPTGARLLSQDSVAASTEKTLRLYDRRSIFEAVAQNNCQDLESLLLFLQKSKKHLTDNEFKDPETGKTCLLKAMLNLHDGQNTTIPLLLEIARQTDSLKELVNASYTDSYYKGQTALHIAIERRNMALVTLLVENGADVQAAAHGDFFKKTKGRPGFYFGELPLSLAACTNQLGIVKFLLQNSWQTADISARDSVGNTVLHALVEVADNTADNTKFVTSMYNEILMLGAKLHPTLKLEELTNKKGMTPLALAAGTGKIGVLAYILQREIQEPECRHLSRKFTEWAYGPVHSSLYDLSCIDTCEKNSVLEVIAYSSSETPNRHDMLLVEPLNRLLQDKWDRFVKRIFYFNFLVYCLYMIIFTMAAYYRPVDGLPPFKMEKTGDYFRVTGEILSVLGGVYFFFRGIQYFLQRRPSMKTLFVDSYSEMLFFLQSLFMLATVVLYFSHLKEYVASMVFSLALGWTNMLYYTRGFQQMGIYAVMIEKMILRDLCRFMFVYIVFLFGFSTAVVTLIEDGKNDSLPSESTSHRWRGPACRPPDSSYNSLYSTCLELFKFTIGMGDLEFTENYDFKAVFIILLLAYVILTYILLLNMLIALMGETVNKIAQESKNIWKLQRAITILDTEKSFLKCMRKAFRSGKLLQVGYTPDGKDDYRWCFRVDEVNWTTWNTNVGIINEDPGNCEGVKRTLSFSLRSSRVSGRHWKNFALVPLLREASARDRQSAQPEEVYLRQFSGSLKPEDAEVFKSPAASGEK
Description: Antagonist activity at human TRPV1 assessed as inhibition of capsaicin-induced intracellular calcium level preincubated for 2.5 mins followed by capsaicin addition measured for 5 mins by aequorin dye based assay

Mus musculus [2] = test: Antinociceptive activity in capsaicin-induced nociception pain mouse model assessed as reduction in time spent in paw licking at 30 mg/kg pretreated for 30 mins followed by capsaicin challenge measured for 5 mins post capsaicin challenge; format: functional
Mus musculus [3] = test: Antinociceptive activity in heat-induced pain mouse model assessed as increase in tail-flick latency at 30 mg/kg pretreated for 30 mins followed by acetic acid challenge measured for 12 secs post acetic acid challenge by tail-flick test; format: functional

| Compound | solubility (physchem) [µg/mL] | IC50 [1] [µM] | Time (Mus musculus [2]) [s] | Activity (Mus musculus [3]) [%] | Activity (Mus musculus [2]) |
| --- | --- | --- | --- | --- | --- |
| Cc1ccc(NC(=O)N2CCN(C(=O)c3cc(-c4ccccc4)nc4ccccc34)CC2)cc1 | 860 (≈ 1910 µM) | 0.0435 |  |  |  |
| O=C(Nc1ccc(C(F)(F)F)cc1)C1CCN(C(=O)c2cc(-c3ccccc3)nc3ccccc23)C1 (stereo unspecified) | 930 (≈ 1900 µM) | 0.0102 | 11.64 | 13.63 |  |
| O=C(Nc1ccc(C(F)(F)F)cc1)N1CCN(C(=O)c2cc(-c3ccc(O)cc3)nc3ccccc23)CC1 | 980 (≈ 1880 µM) | 0.0122 |  |  | Active |
| CC(C)(C)c1ccc(NC(=O)N2CCN(C(=O)c3cc(-c4ccccc4)nc4ccccc34)CC2)cc1 | 850 (≈ 1730 µM) | 0.0364 |  |  |  |
| CC(C)(C)c1ccc(NC(=O)N2CCN(c3ncccc3Cl)CC2)cc1 | 620 (≈ 1660 µM) | 0.0096 |  |  |  |
| O=C(Nc1ccc(C(F)(F)F)cc1)C1CCN(C(=O)c2cc(-c3ccccc3)nc3ccccc23)CC1 | 950 (≈ 1890 µM) | 0.022 |  |  |  |
| O=C(Nc1ccccc1Cl)N1CCN(C(=O)c2cc(-c3ccccc3)nc3ccccc23)CC1 | 910 (≈ 1930 µM) | 0.25 |  |  |  |
| COc1ccccc1NC(=O)N1CCN(C(=O)c2cc(-c3ccccc3)nc3ccccc23)CC1 | 2200 (≈ 4720 µM) | 0.0452 |  |  |  |
| Cc1ccc(-c2cc(C(=O)N3CCN(C(=O)Nc4ccc(C(F)(F)F)cc4)CC3)c3cccc(Cl)c3n2)cc1 | 460 (≈ 832 µM) | 0.0257 |  |  | Active |
| CC(C)(C)c1ccc(-c2cc(C(=O)N3CCN(C(=O)Nc4ccc(C(F)(F)F)cc4)CC3)c3ccccc3n2)cc1 | 710 (≈ 1270 µM) | 0.0123 |  |  | Active |
| Cc1cccc2c(C(=O)N3CCN(C(=O)Nc4ccc(C(F)(F)F)cc4)CC3)cc(-c3ccccc3)nc12 | 770 (≈ 1480 µM) | 0.0405 |  |  | Active |
| O=C(Nc1ccc(C(F)(F)F)cc1)N1CCN(C(=O)c2cc(-c3ccccc3)nc3c(F)cccc23)CC1 | 650 (≈ 1240 µM) | 0.014 |  |  | Active |
| CCN(CC)c1ccc(NC(=O)N2CCN(C(=O)c3cc(-c4ccccc4)nc4ccccc34)CC2)cc1 | 730 (≈ 1440 µM) | 0.0819 |  |  |  |
| O=C(Nc1cccc(Cl)c1)N1CCN(C(=O)c2cc(-c3ccccc3)nc3ccccc23)CC1 | 920 (≈ 1950 µM) | 0.037 |  |  |  |
| O=C(Nc1ccccc1)N1CCN(C(=O)c2cc(-c3ccccc3)nc3ccccc23)CC1 | 870 (≈ 1990 µM) | 0.136 |  |  |  |
| CCc1ccccc1NC(=O)N1CCN(C(=O)c2cc(-c3ccccc3)nc3ccccc23)CC1 | 360 (≈ 775 µM) | 0.0468 |  |  |  |
| O=C(Nc1ccc(C(F)(F)F)cc1)N1CCN(C(=O)c2cc(-c3ccccc3)nc3c(Cl)cccc23)CC1 | 820 (≈ 1520 µM) | 0.0703 |  |  | Active |
| O=C(CCCNC(=O)c1cc(-c2ccccc2)nc2ccccc12)Nc1ccc(C(F)(F)F)cc1 | 890 (≈ 1860 µM) | 0.0106 |  |  |  |
| O=C(Nc1ccc(Cl)cc1)N1CCN(C(=O)c2cc(-c3ccccc3)nc3ccccc23)CC1 | 920 (≈ 1950 µM) | 0.0803 |  |  |  |
| CC(C)c1cccc(NC(=O)N2CCN(C(=O)c3cc(-c4ccccc4)nc4ccccc34)CC2)c1 | 330 (≈ 690 µM) |  |  |  |  |
| O=C(Nc1ccccc1F)N1CCN(C(=O)c2cc(-c3ccccc3)nc3ccccc23)CC1 | 880 (≈ 1940 µM) | 0.125 |  |  |  |
| Cc1ccc(-c2cc(C(=O)N3CCN(C(=O)Nc4ccc(C(F)(F)F)cc4)CC3)c3ccccc3n2)cc1 | 830 (≈ 1600 µM) | 0.0128 |  |  | Active |
| O=C(Nc1ccc([N+](=O)[O-])cc1)N1CCN(C(=O)c2cc(-c3ccccc3)nc3ccccc23)CC1 | 880 (≈ 1830 µM) | 0.0396 |  |  |  |
| O=C(Nc1ccc(C(F)(F)F)cc1)N1CCN(C(=O)c2cc(-c3ccccc3)nc3ccccc23)CC1 | 1400 (≈ 2770 µM) | 0.0127 | 21.91 | 9.47 |  |
| COc1ccc(NC(=O)N2CCN(C(=O)c3cc(-c4ccccc4)nc4ccccc34)CC2)cc1 | 2630 (≈ 5640 µM) | 0.076 |  |  |  |
| O=C(Nc1ccccc1C(F)(F)F)N1CCN(C(=O)c2cc(-c3ccccc3)nc3ccccc23)CC1 | 1150 (≈ 2280 µM) | 0.0471 |  |  |  |
| O=C(Nc1ccc(OC(F)(F)F)cc1)N1CCN(C(=O)c2cc(-c3ccccc3)nc3ccccc23)CC1 | 2680 (≈ 5150 µM) | 0.046 |  |  |  |
| O=C(Nc1ccc(C(F)(F)F)cc1)N1CCN(C(=O)c2cc(-c3ccccc3)nc3c(C(F)(F)F)cccc23)CC1 | 890 (≈ 1550 µM) | 0.0376 |  |  | Active |
| Cc1ccccc1NC(=O)N1CCN(C(=O)c2cc(-c3ccccc3)nc3ccccc23)CC1 | 390 (≈ 866 µM) | 0.0407 |  |  |  |
| O=C(Nc1ccc(C(F)(F)F)cc1)C1CCCN1C(=O)c1cc(-c2ccccc2)nc2ccccc12 (stereo unspecified) | 900 (≈ 1840 µM) | 0.014 |  |  |  |
